The values below are quoted from earlier work in US12691140B2, “Therapeutic carbon monoxide formulations” (THE BRIGHAM AND WOMEN'S HOSPITAL, INC., priority 2020, dated 2026).

For this series the following is noted: dogs, abdominal insufflation to COHb levels comparable to inhalation.

`[C-]#[O+]` [CO, Carbon monoxide]: the toxicity entry is reported as “no toxicity”.
